# Assay results from ChEMBL document CHEMBL1127383, “Improved binding affinity for cyclophilin A by a cyclosporin derivative singly modified at its effector domain” (J Med Chem, 1994).
# What was measured:
# [1] = target: Peptidyl-prolyl cis-trans isomerase A (Homo sapiens, UniProt P62937); assay: Compound was evaluated for in vitro binding affinity to cyclophilin A (CyP-A)
# [2] = Compound was evaluated for in vitro immunosuppressive activity in the interleukin-2 reporter gene assay (IL2-RG); assay type: functional
# Mus musculus = organism: Mus musculus; assay: Compound was evaluated for in vitro immunosuppressive activity in the mouse mixed lymphocyte reaction (MLR-M); assay type: functional
# Peptidyl-prolyl cis-trans isomerase A, sequence (P62937 whole entry): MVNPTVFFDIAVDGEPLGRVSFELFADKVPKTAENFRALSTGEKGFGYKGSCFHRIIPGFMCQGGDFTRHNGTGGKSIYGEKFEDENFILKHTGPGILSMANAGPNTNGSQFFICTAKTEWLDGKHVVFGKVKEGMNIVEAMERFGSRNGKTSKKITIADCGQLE
SMILES,IC50 [1],IC50 [2],IC50 (Mus musculus)
C/C=C/C[C@@H](C)[C@@H](O)[C@H]1C(=O)N[C@@H](CC)C(=O)N(C)CC(=O)N(C)[C@@H](C[C@@H](C)CC)C(=O)N[C@@H](C(C)C)C(=O)N(C)[C@@H](CC(C)C)C(=O)N[C@@H](C)C(=O)N[C@H](C)C(=O)N(C)[C@@H](CC(C)C)C(=O)N(C)[C@@H](CC(C)C)C(=O)N(C)[C@@H](C(C)C)C(=O)N1C,16 nM,14 nM,46 nM
"C/C=C/C[C@@H](C)[C@@H](O)[C@H]1C(=O)NC(CC)C(=O)N(C)CC(=O)N(C)[C@@H](C[C@@H](C)CC)C(=O)N[C@@H](C(C)C)C(=O)N(C)[C@@H](CC(C)C)C(=O)N[C@@H](C)C(=O)N[C@H](C)C(=O)N(C)[C@@H](CC(C)C)C(=O)N(C)[C@@H](CC(C)C)C(=O)N(C)C(C(C)C)C(=O)N1C (single isomer, unassigned)",2.3 nM,17 nM,45 nM
